This note sets out measurements from patent US8183234B2, “Tricyclic guanidine derivatives as sodium-proton exchange inhibitors” (Piramal Life Sciences Limited, priority 2004, dated 2012).

Structures can show the parent of a compound that is named as a salt.

On to `CS(=O)(=O)O.CS(=O)(=O)O.Cc1cc(C(=O)NC(=N)N)cc2c1Oc1c(Cl)cc(NC(=O)CNC3CCC3)cc1CS2(=O)=O` [Example 143, N-(4-Chloro-8-guanidinocarbonyl-6-methyl-10,10-dioxo-10,11-dihydro-5-oxa-10lambda*6*-thia-dibenzo[a,d]cycloheptene-2-yl)-2-cyclobutylamino-acetamide dimesylate], for which the melting point lay within 190 to 192 °C.

As to `CS(=O)(=O)O.CS(=O)(=O)O.CS(=O)(=O)O.CS(=O)(=O)O.Cc1cc(C(=O)NC(=N)N)cc2c1Oc1c(Cl)cc(N3CCN(CCN4CCNCC4)CC3)cc1CS2(=O)=O` [Example 124, N-{4-Chloro-6-methyl-10,10-dioxo-2-[4-(2-piperazin-1-yl-ethyl)-piperazin-1-yl)-10,11-dihydro-5-oxa-10lambda*6*-thia-dibenzo[a,d]cycloheptene-8-carbonyl}-guanidine tetramesylate], the melting point is 182 to 184 °C. As to `CS(=O)(=O)O.Cc1cc(C(=O)NC(=N)N)cc2c1Oc1c(Cl)cc(S(=O)(=O)N3CCOCC3)cc1CS2(=O)=O` [Example 55, N-[4-chloro-6-methyl-2-(morpholine-4-sulfonyl)-10,10-dioxo-10,11-dihydro-5-oxa-10 lambda*6*-thia-dibenzo[a,d]cycloheptene-8-carbonyl]-guanidine methane sulfonic acid salt], the melting point was in the range of 292 to 293 °C. Take `CS(=O)(=O)O.N=C(N)NC(=O)c1ccc2c(c1)S(=O)(=O)Cc1c(F)cccc1O2` [Example 6, N-(1-Fluoro-10,10-dioxo-10,11-dihydro-5-oxa-10lambda*6*-thia-dibenzo[a,d]cycloheptene-8-carbonyl)-guanidine, methanesulfonic acid salt]: the melting point was 231 to 232 °C. As for `CS(=O)(=O)O.CS(=O)(=O)O.CS(=O)(=O)O.Cc1cc(C(=O)NC(=N)N)cc2c1Oc1c(Cl)cc(N3CCN(Cc4cccnc4)CC3)cc1CS2(=O)=O` [Example 128, N-[4-Chloro-6-methyl-10,10-dioxo-2-(4-pyridin-3-ylmethyl-piperazin-1-yl)-10,11-dihydro-5-oxa-10lambda*6*-thia-dibenzo[a,d]cycloheptene-8-carbonyl]-guanidine trimesylate], the melting point is 190 to 192 °C. Turning to `CCCCCCCCCCN1CCN(c2cc(Cl)c3c(c2)CS(=O)(=O)c2cc(C(=O)NC(=N)N)cc(C)c2O3)CC1.CS(=O)(=O)O.CS(=O)(=O)O` [Example 105, N-[4-Chloro-2-(4-decyl-piperazin-1-yl)-6-methyl-10,10-dioxo-10,11-dihydro-5-oxa-10lambda*6*-thia-dibenzo[a,d]cycloheptene-8-carbonyl]-guanidine dimesylate], the melting point lay within 184 to 185 °C.

With `Cc1cc2c(cc1C(=O)N=C(N)N)S(=O)(=O)Cc1ccccc1N2` (as salt: sulfonic acid salt) [Example 183, N-(7-Methyl-10,10-dioxo-10,11-dihydro-5H-10lambda*6*-thia-5-aza-dibenzo[a.d]cycloheptene-8-carbonyl)-guanidine, methane sulfonic acid salt], the melting point was 292 to 294 °C.

`CS(=O)(=O)O.CS(=O)(=O)O.CS(=O)(=O)O.Cc1cc(C(=O)NC(=N)N)cc2c1Oc1c(Cl)cc(N(CCN3CCCC3)C(=O)CNC3CC3)cc1CS2(=O)=O` [Example 150, N-(4-Chloro-8-guanidinocarbonyl-6-methyl-10,10-dioxo-10,11-dihydro-5-oxa-10-lambda*6*-thia-dibenzo[a,d]cycloheptene-2-yl)-2-cyclopropylamino-N-(2-pyrrolidin-1-yl-ethyl)-acetamide trimesylate] registered a melting point of 150 to 152 °C. In turn, `CCCCCN1CCN(c2cc(Cl)c3c(c2)CS(=O)(=O)c2cc(C(=O)NC(=N)N)cc(C)c2O3)CC1.CS(=O)(=O)O.CS(=O)(=O)O` [Example 106, N-[4-Chloro-6-methyl-10,10-dioxo-2-(4-pentyl-piperazin-1-yl)-10,11-dihydro-5-oxa-10-lambda*6*-thia-dibenzo[a,d]cycloheptene-8-carbonyl]-guanidine dimesylate] gave a melting point of 250 to 251 °C.

`CS(=O)(=O)O.CS(=O)(=O)O.CS(=O)(=O)O.Cc1cc(C(=O)NC(=N)N)cc2c1Oc1c(Cl)cc(NCCNCCc3ccccn3)cc1CS2(=O)=O` [Example 83, N-{4-Chloro-6-methyl-10,10-dioxo-2-[2-(2-pyridin-2-yl-ethylamino)-ethylamino]-10,11-dihydro-5-oxa-10lambda*6*-thia-dibenzo[a,d]cycloheptene-8-carbonyl}-guanidine trimesylate]: the melting point fell in the range of 196 to 198 °C.

`CCN(CCN1CCOCC1)c1cc(Cl)c2c(c1)CS(=O)(=O)c1cc(C(=O)NC(=N)N)cc(C)c1O2.CS(=O)(=O)O.CS(=O)(=O)O` [Example 67, N-{4-Chloro-2-[ethyl-(2-morpholin-4-yl-ethyl)-amino]-6-methyl-10,10-dioxo-10,11-dihydro-5-oxa-10lambda*6*-thia-dibenzo[a,d]cycloheptene-8-carbonyl}-guanidine dimesylate] had a melting point of 248 to 250 °C. With `Cc1cc(C(=O)N=C(N)N)cc2c1Oc1c(cccc1C(C)C)CS2(=O)=O` (as salt: sulfonic acid salt) [Example 31, N-(4-Isopropyl-6-methyl-10,10-dioxo-10,11-dihydro-5-oxa-10lambda*6*-thia-dibenzo[a,d]cycloheptene-8-carbonyl)-guanidine, methane sulfonic acid salt], the melting point lay within 252 to 253 °C. The result for `CS(=O)(=O)O.Cc1cc(C(=O)NC(=N)N)cc2c1Oc1c(Cl)cc(S(=O)(=O)Nc3nnc(C4CC4)s3)cc1CS2(=O)=O` [Example 51, 4-Chloro-8-guanidinocarbonyl-6-methyl-10,10-dioxo-10,11-dihydro-5-oxa-10lambda*6*-thia-dibenzo[a,d]cycloheptene-2-sulfonic acid (5-cyclopropyl-[1,3,4]thiadiazol-2-yl)-amide methane sulfonic acid salt] reads 221 to 222 °C; that for `CS(=O)(=O)O.CS(=O)(=O)O.Cc1cc(C(=O)NC(=N)N)cc2c1Oc1c(Cl)cc(NC(=O)CN3CCCCC3)cc1CS2(=O)=O` [Example 134, N-(4-Chloro-8-guanidinocarbonyl-6-methyl-10,10-dioxo-10,11-dihydro-5-oxa-10lambda*6*-thia-dibenzo[a,d]cycloheptene-2-yl)-2-piperidin-1-yl-acetamide dimesylate], 178 to 180 °C; that for `CS(=O)(=O)O.CS(=O)(=O)O.CS(=O)(=O)O.Cc1cc(C(=O)NC(=N)N)cc2c1Oc1c(Cl)cc(N3CCN(CCN4CCOCC4)CC3)cc1CS2(=O)=O` [Example 121, N-{4-Chloro-6-methyl-2-[4-(2-morpholin-4-yl-ethyl)-piperazin-1-yl]-10,10-dioxo-10,11-dihydro-5-oxa-10lambda*6*-thia-dibenzo[a,d]cycloheptene-8-carbonyl}-guanidine trimesylate], 185 to 187 °C. The compound `CS(=O)(=O)O.CS(=O)(=O)O.Cc1cc(C(=O)NC(=N)N)cc2c1Oc1c(Cl)cc(NC(=O)CN3CCCC3)cc1CS2(=O)=O` [Example 147, N-(4-Chloro-8-guanidinocarbonyl-6-methyl-10,10-dioxo-10,11-dihydro-5-oxa-10lambda*6*-thia-dibenzo[a,d]-cyclohepten-2-yl)-2-pyrrolidine-1-yl-acetamide dimesylate] registered a melting point of 190 to 192 °C. As for `CS(=O)(=O)O.CS(=O)(=O)O.Cc1cc(C(=O)NC(=N)N)cc2c1Oc1c(Cl)cc(N(CCN(C)C)C(=O)C(C)(C)C)cc1CS2(=O)=O` [Example 101, N-(4-Chloro-8-guanidinocarbonyl-6-methyl-10,10-dioxo-10,11-dihydro-5-oxa-10lambda*6*-thia-dibenzo[a,d]cyclohepten-2-yl)-N-(2-dimethylamino-ethyl)-2,2-dimethyl-propionamide dimesylate], the melting point is 171 to 173 °C. In the case of `CS(=O)(=O)O.CS(=O)(=O)O.Cc1cc(C(=O)NC(=N)N)cc2c1Oc1c(Cl)cc(N(CCN3CCCC3)C(=O)C3CC3)cc1CS2(=O)=O` [Example 76, Cyclopropanecarboxylic acid (4-chloro-8-guanidinocarbonyl-6-methyl-10,10-dioxo-10,11-dihydro-5-oxa-10lambda*6*-thia-dibenzo[a,d]cyclohepten-2-yl)-(2-pyrrolidin-1-yl-ethyl)-amide dimesylate], the melting point lay within 178 to 179 °C. With `COCC(=O)N(CCN1CCCC1)c1cc(Cl)c2c(c1)CS(=O)(=O)c1cc(C(=O)NC(=N)N)cc(C)c1O2.CS(=O)(=O)O.CS(=O)(=O)O` [Example 77, N-(4-Chloro-8-guanidinocarbonyl-6-methyl-10,10-dioxo-10,11-dihydro-5-oxa-10lambda*6*-thia-dibenzo[a,d]cyclohepten-2-yl)-2-methoxy-N-(2-pyrrolidin-1-yl-ethyl)-acetamide dimesylate] the figure was 204 to 206 °C; with `Cc1cc(C(=O)N=C(N)N)cc2c1Oc1c(Cl)cc(NCCn3ccnc3)cc1CS2(=O)=O` (as salt: mesylate) [Example 64, N-[4-Chloro-2-(2-imidazol-1-yl-ethylamino)-6-methyl-10,10-dioxo-10,11-dihydro-5-oxa-10lambda*6*-thia-dibenzo[a,d]cycloheptene-8-carbonyl]-guanidine dimesylate], 243 to 244 °C.

Compound `CS(=O)(=O)O.CS(=O)(=O)O.Cc1cc(C(=O)NC(=N)N)cc2c1Oc1c(Cl)cc(N3CCN(C4CC4)CC3)cc1CS2(=O)=O` [Example 125, N-[4-Chloro-2-(4-cyclopropyl-piperazin-1-yl)-6-methyl-10,10-dioxo-10,11-dihydro-5-oxa-10lambda*6*-thia-dibenzo[a,d]cycloheptene-8-carbonyl]-guanidine dimesylate] returned a melting point of 245 to 248 °C. In turn, `CS(=O)(=O)O.CS(=O)(=O)O.Cc1cc(C(=O)NC(=N)N)cc2c1Oc1c(Cl)cc(NC(=O)Cn3ccnc3)cc1CS2(=O)=O` [Example 137, N-(4-Chloro-8-guanidinocarbonyl-6-methyl-10,10-dioxo-10,11-dihydro-5-oxa-10lambda*6*-thia-dibenzo[a,d]cyclohepten-2-yl)-2-imidazol-1-yl-acetamide dimesylate] showed a melting point of 252 to 254 °C.
